Source: ChEMBL document CHEMBL1136499, “Tripeptidyl-peptidase II (TPP II) inhibitory activity of (S)-2,3-dihydro-2-(1H-imidazol-2-yl)-1H-indoles, a systematic SAR evaluation. Part 2” (Bioorg Med Chem Lett, 2003)

Target: Tripeptidyl-peptidase 2 (Rattus norvegicus, UniProt Q64560)
Assay: Inhibition of Tripeptidyl-peptidase II purified from a rat liver post-lysosomal fraction.

Chain of Tripeptidyl-peptidase 2 (Q64560 whole entry): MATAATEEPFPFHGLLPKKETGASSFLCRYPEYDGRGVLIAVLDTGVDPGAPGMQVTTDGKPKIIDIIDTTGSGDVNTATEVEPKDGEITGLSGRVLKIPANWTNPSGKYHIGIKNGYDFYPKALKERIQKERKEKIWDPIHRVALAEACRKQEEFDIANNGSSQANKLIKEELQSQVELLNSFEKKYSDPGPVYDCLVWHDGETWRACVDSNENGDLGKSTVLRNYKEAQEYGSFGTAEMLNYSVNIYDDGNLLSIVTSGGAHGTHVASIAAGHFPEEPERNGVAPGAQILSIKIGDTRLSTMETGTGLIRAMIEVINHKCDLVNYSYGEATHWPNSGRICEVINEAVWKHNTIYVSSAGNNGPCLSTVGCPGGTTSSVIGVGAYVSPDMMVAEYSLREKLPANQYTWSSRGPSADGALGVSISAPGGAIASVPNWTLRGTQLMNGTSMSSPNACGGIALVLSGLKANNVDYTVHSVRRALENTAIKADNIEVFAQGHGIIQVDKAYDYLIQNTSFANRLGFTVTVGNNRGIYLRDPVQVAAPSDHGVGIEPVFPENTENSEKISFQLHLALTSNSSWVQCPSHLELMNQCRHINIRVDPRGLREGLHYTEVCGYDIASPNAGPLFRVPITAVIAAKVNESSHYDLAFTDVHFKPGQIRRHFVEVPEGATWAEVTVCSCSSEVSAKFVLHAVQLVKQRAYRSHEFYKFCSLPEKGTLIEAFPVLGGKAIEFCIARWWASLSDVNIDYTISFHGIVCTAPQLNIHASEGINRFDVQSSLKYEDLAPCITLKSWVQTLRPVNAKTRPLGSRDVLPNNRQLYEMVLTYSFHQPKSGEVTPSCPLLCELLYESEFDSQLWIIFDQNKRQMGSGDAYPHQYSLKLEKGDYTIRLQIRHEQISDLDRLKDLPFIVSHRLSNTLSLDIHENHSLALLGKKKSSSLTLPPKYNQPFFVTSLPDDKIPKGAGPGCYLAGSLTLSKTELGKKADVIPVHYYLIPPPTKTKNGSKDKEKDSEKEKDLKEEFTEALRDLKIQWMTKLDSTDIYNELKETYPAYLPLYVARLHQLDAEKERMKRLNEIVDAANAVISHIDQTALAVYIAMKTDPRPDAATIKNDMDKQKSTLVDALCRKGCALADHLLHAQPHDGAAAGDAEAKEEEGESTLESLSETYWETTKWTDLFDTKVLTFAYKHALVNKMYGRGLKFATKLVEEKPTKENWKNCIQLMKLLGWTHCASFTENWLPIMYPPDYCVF

CCCc1cnc([C@@H]2Cc3ccccc3N2C(=O)CCN)[nH]1 was tested, and the IC50 was > 10000 nM.
CCCc1[nH]c([C@@H]2Cc3ccccc3N2C(=O)CN)nc1C showed an IC50 of 55 nM.
Work on CCCc1c[nH]c([C@@H]2Cc3ccccc3N2C(=O)[C@@H](N)CCC)n1 yielded an IC50 of 4 nM.
Work on CCc1cn(C)c([C@@H]2Cc3ccccc3N2C(=O)CN)n1 yielded an IC50 of 2100 nM.
Work on CCCc1c[nH]c([C@@H]2Cc3cc(Cl)ccc3N2C(=O)CN)n1 yielded an IC50 of 11 nM.
Compound CCCc1nc([C@@H]2Cc3ccccc3N2C(=O)CN)[nH]c1C(N)=O has an IC50 of 200 nM.
For CCCc1c[nH]c([C@@H]2Cc3ccccc3N2C(=O)[C@H](C)NC)n1, the IC50 was > 10000 nM.
Work on CCCc1cnc([C@@H]2Cc3cc(Cl)ccc3N2C(=O)[C@H](C)N)[nH]1 yielded an IC50 of 5 nM.
In the case of CCc1c[nH]c([C@@H]2Cc3ccccc3N2C(=O)CN)n1, the IC50 is reported as 194 nM.
With CCc1cnc([C@@H]2Cc3ccccc3N2C(=O)CN)n1C the IC50 was > 10000 nM.
With CCCc1c[nH]c([C@@H]2Cc3cc(OC)ccc3N2C(=O)[C@H](C)N)n1 the IC50 was 16 nM.
Compound CCCc1c[nH]c([C@@H]2Cc3ccccc3N2C(=O)CN)n1 has an IC50 of 36 nM.
Work on CCC(N)C(=O)N1c2ccccc2C[C@H]1c1nc2ccccc2[nH]1 (stereo partly specified) yielded an IC50 of 450 nM.
For CCCc1cnc([C@@H]2Cc3ccccc3N2C(=O)c2ccccc2[N+](=O)[O-])[nH]1, the IC50 was > 10000 nM.
Work on CCCc1cnc([C@@H]2Cc3ccccc3N2C(=O)[C@@H](N)Cc2ccccc2)[nH]1 yielded an IC50 of 2300 nM.
With CCCc1c[nH]c([C@@H]2Cc3ccccc3N2C(=O)[C@@H](N)C(C)C)n1 the IC50 was 20 nM.
For CCCc1cnc([C@@H]2Cc3ccccc3N2C(=O)c2cccc([N+](=O)[O-])c2)[nH]1, the IC50 was > 10000 nM.
CCCc1nnc([C@@H]2Cc3ccccc3N2C(=O)CN)o1 gave an IC50 of 2200 nM.
Work on CCCc1c[nH]c([C@@H]2Cc3cc(OC)ccc3N2C(=O)CN)n1 yielded an IC50 of 70 nM.
For CCCc1c[nH]c([C@@H]2CCc3ccccc3N2C(=O)[C@H](C)N)n1 (stereo in doubt; form 2), the IC50 was 400 nM.
Compound CCCc1cnc([C@@H]2Cc3ccccc3N2C(=O)[C@H]2CCCN2)[nH]1 has an IC50 of 1400 nM.
CCCCc1cnc([C@@H]2Cc3ccccc3N2C(=O)CN)[nH]1 was tested, and the IC50 was 50 nM.
For CCc1cnc([C@@H]2Cc3ccccc3N2C[C@H](C)N)[nH]1, the IC50 was > 10000 nM.
In the case of CCCc1c[nH]c([C@@H]2Cc3ccccc3N2C(=O)c2cccc(N)c2)n1, the IC50 is reported as > 10000 nM.
In the case of CCCc1c[nH]c([C@@H]2Cc3ccccc3N2C(=O)c2c[nH]cn2)n1, the IC50 is reported as > 10000 nM.
For CCc1cnc([C@@H]2Cc3ccccc3N2C(=O)CN)s1, the IC50 was 7700 nM.
For CCCc1[nH]c([C@@H]2Cc3ccccc3N2C(=O)CN)nc1C(=O)OCC, the IC50 was 210 nM.
Work on C[C@H](N)C(=O)N1c2ccccc2C[C@H]1c1nc2ccccc2[nH]1 yielded an IC50 of 1400 nM.
CCCc1nnc([C@@H]2Cc3ccccc3N2C(=O)CN)[nH]1 was tested, and the IC50 was > 10000 nM.
In the case of CCCc1[nH]c([C@@H]2Cc3ccccc3N2C(=O)CN)nc1C(=O)NCC(=O)OC, the IC50 is reported as 135 nM.
CCCc1c[nH]c([C@@H]2Cc3ccccc3N2C(=O)[C@H](N)CC)n1 showed an IC50 of 4 nM.
For NCC(=O)N1c2ccccc2C[C@H]1c1nc(-c2ccccc2)c[nH]1, the IC50 was > 10000 nM.
Compound CCc1c[nH]c([C@@H]2Cc3ccccc3N2C(=O)[C@H](C)N)n1 has an IC50 of 23 nM.
For CCCc1cnc([C@@H]2Cc3ccccc3N2C(=O)c2ccccc2N)[nH]1, the IC50 was > 10000 nM.
For CCCc1c[nH]c([C@@H]2CCc3ccccc3N2C(=O)[C@H](C)N)n1 (stereo in doubt; form 1), the IC50 was 800 nM.
Work on CCCc1cnc([C@@H]2Cc3cc(F)ccc3N2C(=O)CN)[nH]1 yielded an IC50 of 46 nM.
